Test results from patent publication US10632181B2, “Composition, containing RGD motif-containing peptide or fragment thereof, for treating burns and glaucoma, alleviating skin wrinkles, and promoting hair growth” (HUONS CO., LTD., priority 2014, dated 2020).
Positions of bridges follow the written chain, without caps; N, C: chain ends. No end group written: not given here.

Assays:
[1] = tested on: glaucoma animal model having microbead-induced elevated intraocular pressure; assay: Glaucoma test: intraocular pressure; format: in vivo, mouse; conditions: for intraocular pressure change: 20 ug/ml applied to eye once daily
Procedure: (§1) For control drug, Taflotan eye drops (Santen Pharmaceutical Co., Ltd.) were used, and for test drug, Taflotan eye drops+HU024 (SEQ ID NO:2) (sample 1), HU024 (SEQ ID NO:2) (sample 2), HU025 (SEQ ID NO:3) (sample 3), HU026 (SEQ ID NO:4) (sample 4), and HU027 (SEQ ID NO:5) (sample 5) were used, and testing was performed on glaucoma animal model having microbead-induced elevated intraocular pressure. In experimental animal model, Rompun solution for injection and zoletil were mixed and used to put the experimental animal under anesthesia, topical anesthetic Alcaine was applied to eye, 1×106 microbead/mL 1 μL was injected into anterior chamber using micro glass needle to induce an increase in intraocular pressure for 2 weeks (IOVS 2011 Vol. 52 36-).
(§2) The control drug and 5 samples were provided to the experimental animal having the elevated intraocular pressure for 2 weeks, 5 samples were applied to eye once daily, comparative verification of efficacy was performed, and intraocular pressure reduction and optic nerve cell in the retina was observed through administration for 4 weeks.
(§3) The intraocular pressure was measured using a contact-type intraocular pressure meter Tono lab's tonometer TV02 model. […] In 5-7 days after fluorescent probe injection, the eye was enucleated and fixed in 4% paraformaldehyde at room temperature for 4 hours. The retina was separated from choroid of the fixed eye and mounted on a slide. In each experimental group slide, optic nerve cell expressing fluorescence was detected using fluorescence microscope, images were taken at a magnification of ×40 and ×200, and data was collected.

[2] = tested on: optic nerve cell in the retina of glaucoma animal model; assay: Glaucoma test: optic nerve cell in the retina (Fluorogold); format: in vivo, mouse; conditions: applied to eye once daily, Fluorogold labelling
Procedure: as §1, §2, §3

[3] = tested on: hair growth of C57BL/6 mouse; assay: Hair growth test: hair weight; format: in vivo
Procedure: (§4) This test was conducted to assess the influence on hair growth of C57BL/6 mouse when 4 types of test substances, HU024 (SEQ ID NO:2), HU025 (SEQ ID NO:3), HU026 (SEQ ID NO:4), and HU027 (SEQ ID NO:5), were applied to the skin for 14 days.
(§5) The group design was set to negative control (sterile water for injection G1), test substance HU024 (SEQ ID NO:2) 20 ug/head/day (G2), test substance HU024 (SEQ ID NO:2) 60 ug/head/day (G3), test substance HU025 (SEQ ID NO:3) 20 ug/head/day (G4), test substance HU025 (SEQ ID NO:3) 60 ug/head/day (G5), test substance HU026 (SEQ ID NO:4) 20 ug/head/day (G6), test substance HU026 (SEQ ID NO:4) 60 ug/head/day (G7), test substance HU027 (SEQ ID NO:5) 20 ug/head/day (G8), test substance HU027 (SEQ ID NO:5) 60 ug/head/day (G9) and positive control minoxyl 3% (G10) administered groups. Each group had 10 animals.
(§6) After the animal was put under anesthesia using zoletil (1 mL/kg, i.p), the back of the animal was primarily shaved using a depilator, and Veet depilatory was evenly applied on the back. After about 5 minutes, the applied site was cleaned up using gauze moistened with sterile water for injection. Only animal whose shaved back was scarlet in color was used for group separation. The test substance was applied to the same site daily once per day, 7 times per week for 14 days, and the test substance was evenly applied to the shaved site (on the back) by rubbing with a glass rod about 10 times.
The hair growing area (%) relative to the test substance-applied area was measured and determined, and Image analyzer program (Image Pro Plus ver. 6.3, Cybermetics, USA) was used to measure. It was measured on the 1st, 3rd, 7th, 10th and 14th days after test substance administration. Imaging was performed together with the measurements on the date when the hair area was measured. On the next day after the end of application, the animals were killed by CO2 gas, and hair on the hair growing area was removed by a depilator and hair weight was measured.
(§7) The measurement results were analyzed using SPSS (ver. 10.1K), Duncan t-test for weight changes was conducted through one-way analysis of variance, hair weight was compared between groups using Student's t-test, and hair growing area was compared between groups through nonparametric multiple comparison procedures Whitney-Mann methods. P<0.05 was determined to be statistically significant.

[4] = Hair growth test: body weight; format: in vivo; conditions: skin
Procedure: as §4, §5, §6
The test item was measurements of dead animal, general syndrome, weight change, hair growing area and hair weight, and comparison with negative control was conducted.
as §7

[5] = tested on: hair growth of C57BL/6 mouse; assay: Hair growth test: hair growing area; format: in vivo
Procedure: as §4, §5, §6
The hair growing area (%) relative to the test substance-applied area was measured and determined, and Image analyzer program (Image Pro Plus ver. 6.3, Cybermetics, USA) was used to measure. […] Imaging was performed together with the measurements on the date when the hair area was measured. On the next day after the end of application, the animals were killed by CO2 gas, and hair on the hair growing area was removed by a depilator and hair weight was measured.
as §7

| Molecule | optic nerve cell death / protection [2] | intraocular pressure change [1] | HAIR WEIGHTS ([3]; 20 ug/head/day for 14 days) [g] | HAIR WEIGHTS ([3]; 60 ug/head/day for 14 days) [g] | BODY WEIGHTS ([4]; 20 ug/head/day, Day 1) [g] | BODY WEIGHTS ([4]; 20 ug/head/day, Day 7) [g] | BODY WEIGHTS ([4]; 20 ug/head/day, Day 11) [g] | BODY WEIGHTS ([4]; 60 ug/head/day, Day 1) [g] | BODY WEIGHTS ([4]; 60 ug/head/day, Day 7) [g] | BODY WEIGHTS ([4]; 60 ug/head/day, Day 11) [g] | HAIR AREA (%) ([5]; 20 ug/head/day, Day 1) | HAIR AREA (%) ([5]; 20 ug/head/day, Day 4) | HAIR AREA (%) ([5]; 20 ug/head/day, Day 7) | HAIR AREA (%) ([5]; 20 ug/head/day, Day 10) | HAIR AREA (%) ([5]; 20 ug/head/day, Day 14) | HAIR AREA (%) ([5]; 60 ug/head/day, Day 1) | HAIR AREA (%) ([5]; 60 ug/head/day, Day 4) | HAIR AREA (%) ([5]; 60 ug/head/day, Day 7) | HAIR AREA (%) ([5]; 60 ug/head/day, Day 10) | HAIR AREA (%) ([5]; 60 ug/head/day, Day 14) | also measured |
| --- | --- | --- | --- | --- | --- | --- | --- | --- | --- | --- | --- | --- | --- | --- | --- | --- | --- | --- | --- | --- | --- |
| CC(C)OC(=O)CCC/C=C\C[C@@H]1[C@@H](/C=C/C(F)(F)COc2ccccc2)[C@H](O)C[C@@H]1O [Tafluprost, reference compound] | protection from optic nerve cell death was observed |  |  |  |  |  |  |  |  |  |  |  |  |  |  |  |  |  |  |  | intraocular pressure numerical value ([1]; positive control, eye drops): 15.9±2.9 mmHg; intraocular pressure reduction as compared to negative control ([1]; positive control, eye drops): 20.89% |
| HU026 (TRGDCDLPEFCP; disulfide 5-11; listed as Homo sapiens) | protection from optic nerve cell death was observed | the intraocular pressure did not reduce | 0.021 ± 0.008 | 0.026 ± 0.007 | 21.20 ± 0.77 | 22.48 ± 1.12 | 23.75 ± 1.27 | 21.58 ± 0.61 | 22.80 ± 1.03 | 23.83 ± 1.30 | 0.10 ± 0.05 | 0.13 ± 0.07 | 0.43 ± 0.30 | 7.67 ± 4.54 | 56.64 ± 12.26 | 0.07 ± 0.04 | 0.22 ± 0.13 | 0.69 ± 0.37 | 13.54 ± 4.75 | 65.41 ± 11.62 |  |
| NH2—RPTRGDCDLPEFCPG—COOH (H-RPTRGDCDLPEFCPG-OH; cysteine pairing not given here; listed as Homo sapiens) [HU025] | protection from optic nerve cell death was observed | had an effect in reducing the intraocular pressure | 0.005 ± 0.002 | 0.021 ± 0.007 | 21.20 ± 1.23 | 22.63 ± 1.01 | 23.77 ± 1.17 | 21.53 ± 0.63 | 23.20 ± 0.83 | 24.23 ± 1.02 | 0.04 ± 0.03 | 0.06 ± 0.05 | 0.47 ± 0.22 | 2.04 ± 0.66 | 39.88 ± 8.74 | 0.04 ± 0.04 | 0.42 ± 0.33 | 0.72 ± 0.51 | 19.61 ± 9.01 | 75.45 ± 6.65 | intraocular pressure change ([1]; listed as sample 3): A reduction in intraocular pressure was observed |
| NH2—RPTRGDCDL—COOH (H-RPTRGDCDL-OH; listed as Homo sapiens) [HU027] |  |  | 0.010 ± 0.003 | 0.016 ± 0.005 | 21.71 ± 0.59 | 23.27 ± 0.71 | 23.98 ± 0.79 | 21.77 ± 0.87 | 23.07 ± 1.13 | 23.97 ± 1.14 | 0.13 ± 0.13 | 0.32 ± 0.14 | 0.44 ± 0.17 | 8.81 ± 3.57 | 56.95 ± 9.83 | 0.17 ± 0.11 | 0.33 ± 0.22 | 0.50 ± 0.26 | 8.20 ± 3.43 | 61.95 ± 11.30 |  |
